Legend:
[1] = after first pass metabolism; cited from earlier work
alkaline phosphatase = experiment: Digestion of the phosphorylated prodrug with alkaline phosphatase, followed by 31P NMR; type: in vitro ADME; conditions: 1 mg (10 units) alkaline phosphatase in water, stirred for 2 hours
Protocol: N-acetyl-S-phosphocysteine was synthesized according to the procedure followed by Binkely (1954). N-acetyl cysteine (0.5 g) was dissolved in 8 mL of distilled water in an ice bath. The NAC solution was then treated with 0.2 mL of phosphorus oxychloride and with sodium hydroxide to maintain the basic pH of 11. The resulting white solid was dried and re-dissolved in deuterium oxide for ^31P, ^13C and ^1H NMR analysis. After analysis, the sample was dried, re-suspended in water, and treated with 1 mg (10 units) of alkaline phosphatase, and stirred for 2 hours. The solution was dried and resuspended in deuterium oxide for NMR analysis.
Synthesis of ester cysteine was followed according to the procedure as follows. NAC (0.2 g) was dissolved in 7 mL of ethanol, 2 mL of concentrated hydrochloric acid and stirred at room temperature for 1 hour. The reaction mixture was refluxed for 1 hour at 60° C. The sample was then dried and resuspended in acetonitrile for ESI-MS analysis (same instrument settings as described for analysis of HIDD). The acid protected sample was phosphorylated with POCL3, and sodium hydroxide dried and resuspended in deuterium oxide for NMR analysis. After analysis, the sample was dried, resuspended in water, treated with 1 mg (10 units) of alkaline phosphatase and stirred for 2 hours. […]
The ester NAC was synthesized according to the procedure as follows and analyzed with ESI-MS. […]

In the case of `CC(=O)N[C@@H](CS)C(=O)O` [NAC, N-acetyl cysteine], the “presence of free drug in the systemic circulation” value [1] is given as “around 9%”.
With `CC(=O)N[C@@H](CSP(=O)(O)O)C(=O)O` [phosphorylated NAC, N-acetyl-S-phosphocysteine] the “cleavage of S—P linkage on digestion with alkaline phosphatase (31P NMR)” value (alkaline phosphatase) was “hydrolyzed with alkaline phosphatase”.

Source: patent publication US9629857B2, “Therapeutic uses of glutathione mimics” (BOARD OF TRUSTEES OF NORTHERN ILLINOIS UNIVERSITY, priority 2007, dated 2017)
